One molecule from paper PMC8747035, “Design, Synthesis, and Biological Evaluation of 5,6,7,8-Tetrahydrobenzo[4,5]thieno[2,3-d]pyrimidines as Microtubule Targeting Agents” (Molecules, 2022) can be followed below.

The IC50 is the concentration that gives 50% inhibition. Broadly, the GI50 is the concentration at which growth is held to half of that of the control.

The subject of one data set is tubulin. Briefly: Inhibition of [3H]colchicine binding to tubulin. More on the design: species or system Bovine. To be noted: compound at 5 μM, 5.0 µM [3H]colchicine, 1.0 µM tubulin. On the procedure: Bovine brain tubulin was purified as described previously. The tubulin assembly assay has been described in detail. Briefly, 1.0 mg/mL of tubulin (10 µM) was preincubated for 15 min at 30 °C in 0.8 M monosodium glutamate (pH of 2 M stock solution adjusted to 6.6 with HCl), varying compound concentrations and 4% (v/v) DMSO as compound solvent. After the preincubation, the reaction mixtures were placed on ice and 0.4 mM GTP was added. The reaction mixtures were transferred to cuvettes at 0 °C in a recording spectrophotometer equipped with an electronic temperature controller. After baselines were established, the temperature was elevated over about 30 s to 30 °C, and changes in turbidity were monitored at 350 nm for 20 min. The compound concentration that caused a 50% reduction in increase in turbidity, interpolated from the values obtained with defined compound concentrations, was defined as the IC50 value. The assay to measure inhibition of [^3H]colchicine binding was described in detail previously. Briefly, 0.1 mg/mL (1.0 µM) tubulin was incubated at 37 °C with 5.0 µM [3H]colchicine and potential inhibitors at 5.0 µM. […] The [^3H]colchicine was a product of PerkinElmer, USA.

A further data set deals with HeLa WTβIII cells. Briefly: SRB assay in βIII-tubulin expressing HeLa WTβIII cells. It is filed as cell-based. To be noted: Homo sapiens, read-out: IC50 ± SD in HeLa WTβ3. On the procedure:
Compounds 4–8, 10, 12, and 13 were evaluated for their abilities to overcome βIII-tubulin mediated drug resistance using an isogenic HeLa cell line pair (Table 4). […] The Rr values (Table 4) were calculated by dividing the IC50 of the βIII-tubulin expressing line by the IC50 obtained in the parental HeLa cells.
The antiproliferative and cytotoxic effects of the compounds in cancer cells were evaluated using the SRB assay as previously described. MDA-MB-435 cells were obtained from the Lombardi Cancer Center of Georgetown University (Washington, DC, USA). SK-OV-3 and HeLa cells were purchased from ATCC. Details about the generation of the SK-OV-3 MDR1-M6/6 and HeLa WTβIII cells were described previously. The IC50 values represent an average of three independent experiments, each conducted using triplicate points.
HeLa, A-10, SK-OV-3, and SK-OV-3 MDR1-M6/6 cells were grown in Basal Medium Eagle (Sigma-Aldrich, St. Louis, MO, USA) supplemented with 10% FBS (Hyclone, GE Life Sciences, Logan, UT, USA) 1% GlutaMAX (Gibco, Life Technologies, Waltham, MA, USA) and 50 µg/mL gentamycin (Life Technologies, USA). HeLa WTβIII cells were grown in Dulbecco’s Modified Eagle Medium (Life Technologies) supplemented with 10% FBS and 50 µg/mL gentamycin. MDA-MB-435 cells were maintained in Improved Minimum Essential Medium (Life Technologies) supplemented with 10% FBS and 25 µg/mL gentamycin. All cells were grown at 37 °C in a humidified environment with 5% CO2.

A further data set has as its system MDA-MB-435 tumors. Briefly: MDA-MB-435 xenograft model. The format is in vivo, nude mice. Particulars: 75 mg/kg i.p. 3 × a week. On the procedure:
Compound 4 was selected for further evaluation in an in vivo xenograft mouse study in light of its nanomolar potency in vitro in the NCI-60 cancer cell line panel and its potent microtubule depolymerization activity. The in vivo effects of 4 were tested in the MDA-MB-435 xenograft model (Figure 5).
MDA-MB-435 tumor fragments were implanted s.c. into the flanks of female nude mice. […] Compound 4 was dissolved in a 50:50 Cremophor EL/DMSO mixture and further dissolved in PBS for a final concentration of 10:10:80 Cremophor EL:DMSO:PBS (v/v). […] Tumor volumes and mouse weights were measured 2–3 times a week. A two-way ANOVA with Dunnett’s post-hoc tests including all treatment groups in the trial was used to determine significant differences in tumor volumes between drug-treated and untreated control groups on each measurement day. These animal studies were performed at the University of Texas Health Science Center in San Antonio in compliance with an approved Institutional Animal Care and Use protocol.
MDA-MB-435 tumors were implanted into the flanks of nude mice and allowed to grow until they reached a volume of ~200 mm^3. […] Tumor volumes and mouse weights were measured 2–3 times a week. Statistical significance was evaluated by two-way ANOVA (time vs. drug) with Dunnett’s post-hoc tests. A statistically significant difference in tumor volume was detected on day 14 between mice treated with 4 (* p = 0.0384) and untreated control tumors.

In a further data set the test system is HOP-92. Put plainly: NCI-60 growth inhibition, HOP-92. The format is cell-based. To be noted: Homo sapiens, NSCLC. The source says:
(§1) Compound 4 had better potency than the lead compound 1 in 50 cancer cell lines. (better by 5 to 6-fold in leukemia, 2 to 17-fold in NSCLC, 2 to 6-fold in colon cancer, 2 to 5-fold in CNS cancer, 2 to 25-fold in melanoma, 2 to 5-fold in ovarian cancer, 2 to 9-fold in renal cancer, 2 to 5-fold in prostate cancer, and 2 to 6-fold in breast cancer compared to lead compound 1).

The test system of another data set is NCI-H23. Put plainly: NCI-60 growth inhibition, NCI-H23. The format is cell-based. To be noted: Homo sapiens, NSCLC.
Text: as §1

The subject of a further data set is HCT-15. Put plainly: NCI-60 growth inhibition, HCT-15. Particulars: Homo sapiens, Colon Cancer. The format is cell-based.
Text: as §1

A further data set has as its system U251. Briefly: NCI-60 growth inhibition, U251. It is filed as cell-based. To be noted: Homo sapiens, U-251, CNS Cancer.
Text: as §1

In a further data set the test system is IGROVI. Put plainly: NCI-60 growth inhibition, IGROVI. The format is cell-based. To be noted: Homo sapiens, Ovarian Cancer.
Text: as §1

For the next data set, the system named is OVCAR-3. Briefly: NCI-60 growth inhibition, OVCAR-3. The format is cell-based. To be noted: Homo sapiens, Ovarian Cancer.
Text: as §1

In another data set the test system is OVCAR-4. Put plainly: NCI-60 growth inhibition, OVCAR-4. The format is cell-based. Particulars: Homo sapiens, Ovarian Cancer.
Text: as §1

In another data set the test system is SK-OV-3. Put plainly: NCI-60 growth inhibition, SK-OV-3. The format is cell-based. Particulars: Homo sapiens, Ovarian Cancer.
Text: as §1

A further data set has as its system RXF 393. Put plainly: NCI-60 growth inhibition, RXF 393. It is filed as cell-based. Particulars: Homo sapiens, Renal Cancer.
Text: as §1

Another data set concerns BT-549. Briefly: NCI-60 growth inhibition, BT-549. It is filed as cell-based. Particulars: Homo sapiens, Breast Cancer.
Text: as §1

SMILES strings stand for the structures.

Take `COc1ccc(N(C)c2nc(N)nc3sc4c(c23)CCCC4)cc1` [Compound 4, N4-(4-methoxyphenyl)-N4-methyl-5,6,7,8-tetrahydrobenzo[4,5]thieno[2,3-d]pyrimidine-2,4-diamine]: the “Inhibition of Colchicine Binding (% inhibition ± SD)” value with tubulin was found to be 99.0 ± 1.0%. For the same molecule, the IC50 with HeLa WTβIII cells is 0.0106 ± 0.0018 µM. The “Antitumor effects on MDA-MB-435 tumor volume vs control” value in the data set on MDA-MB-435 tumors (day 14) is given as “statistically significant antitumor effects”. Further, the Weight loss entry in the data set on MDA-MB-435 tumors (nude mice) is “moderate weight loss”. Besides, the GI50 was determined as 0.0141 µM with HOP-92; 0.0113 µM in the data set with NCI-H23; 0.00885 µM in the data set on HCT-15; 0.0096 µM in the data set with U251; 0.0128 µM with IGROVI; 0.0171 µM in the data set on OVCAR-3. Further, the GI50 with OVCAR-4 is 0.00998 µM; with SK-OV-3 it was 0.0156 µM; in the data set on RXF 393, 0.00765 µM; in the data set on BT-549, 0.0175 µM.
